What was measured:
[1] = test system: patients with low renin hypertension; conditions: cited from earlier work
hypertensive patients = assay: Clinical response to 8 weeks of drug therapy, patients categorized as responders or non-responders; type: in vivo, human; conditions: 8 weeks therapy; for patients who demonstrate a clinical response (responders): BP reduced by 10 mm/Hg systole and/or 6 mm/Hg diastole or more
Description: • a. Hypertension diagnosed by a Cardiologist. The method used to diagnose hypertension is based on the ICE-9 and ICD-10 classification system, and concurs with the diagnostic hypertension criteria outlined by the American Heart Association and includes the following measures: Blood pressure greater than 140 systolic and 90 diastolic (adult person). For this study, individuals will be recruited primarily with moderate to severe hypertension. • b. Patients with hypertension with a severity level that is judged to be appropriate to treatment with Ramace™ were recruited to participate in the study. Study patients signed a consent and donate a blood sample for the study. • c. Phenotype was confirmed by measurement of blood pressure levels at different time points. • d. Age 12-80 years. • e. Both males and females were recruited. • f. White Caucasian (Icelandic hypertensive patient population). • g. Ramace™ therapy for 8 weeks. Examination by a study cardiologist every 3 weeks who confirmed clinical response to Ramace™ therapy. • h. Response to Ramace™: Patients were categorized as either Ramace™ responders or Ramace™ non-responders. […] The same cardiologists examined all 57 patients before and after Ramace™ trial.
All patients recruited were treated with therapeutic doses of Ramace™ for minimum of 8 weeks and examined by the study cardiologist before and after starting the drug. Blood samples were drawn at a similar time (e.g., around 9 AM) in the morning from all patients. The dose of the ACE inhibitor was recorded for all patients, before and 4 weeks after the patient was started on the study drug. No diet restrictions are implemented.
(§1) • a. Hypertension diagnosed by a Cardiologist. The method used to diagnose hypertension is based on the ICE-9 and ICD-10 classification system, and concurs with the diagnostic hypertension criteria outlined by the American Heart Association and includes the following measures: Blood pressure greater than 140 systolic and 90 diastolic (adult person). For this study, individuals will be recruited primarily with moderate to severe hypertension. • b. Patients with hypertension with a severity level that is judged to be appropriate to treatment with Norvasc™ were recruited to participate in the study. Study patients signed a consent and donate a blood sample for the study. • c. Phenotype was confirmed by measurement of blood pressure levels at different time points. • d. Age 12-80 years. • e. Both males and females were recruited. • f. White Caucasian (Icelandic hypertensive patient population). • g. […] Response to Norvasc™: Patients were categorized as either Norvasc™ responders or Norvasc™ non-responders.
Blood samples were drawn at a similar time (e.g., around 9 AM) in the morning from all patients. The dose was recorded for all patients. No diet restrictions were implemented.
as §1, with “Cozaar™” for “Norvasc™”, “Cozaar™:” for “Norvasc™:”

[2] = test system: patients with chronic stable angina; conditions: placebo 4.4%, P=NS; cited from earlier work
[3] = in vivo; cited from earlier work
ACE = ACE (Homo sapiens, UniProt P12821); conditions: cited from earlier work
AT1 receptor = target: T1, AT1 receptor (Homo sapiens, UniProt P30556); conditions: cited from earlier work
T1 sequence (P30556 1-359): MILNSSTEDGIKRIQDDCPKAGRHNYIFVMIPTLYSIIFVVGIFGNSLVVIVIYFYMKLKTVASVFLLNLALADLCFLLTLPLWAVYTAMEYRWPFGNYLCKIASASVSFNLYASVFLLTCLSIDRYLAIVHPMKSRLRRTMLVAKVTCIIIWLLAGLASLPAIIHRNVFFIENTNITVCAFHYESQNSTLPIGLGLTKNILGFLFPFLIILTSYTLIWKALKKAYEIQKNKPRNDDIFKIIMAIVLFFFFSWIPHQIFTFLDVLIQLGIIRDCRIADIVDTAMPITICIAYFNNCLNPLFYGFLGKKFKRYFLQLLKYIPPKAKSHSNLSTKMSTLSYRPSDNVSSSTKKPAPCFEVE

Sequence of ACE (P12821 30-1306, species assumed): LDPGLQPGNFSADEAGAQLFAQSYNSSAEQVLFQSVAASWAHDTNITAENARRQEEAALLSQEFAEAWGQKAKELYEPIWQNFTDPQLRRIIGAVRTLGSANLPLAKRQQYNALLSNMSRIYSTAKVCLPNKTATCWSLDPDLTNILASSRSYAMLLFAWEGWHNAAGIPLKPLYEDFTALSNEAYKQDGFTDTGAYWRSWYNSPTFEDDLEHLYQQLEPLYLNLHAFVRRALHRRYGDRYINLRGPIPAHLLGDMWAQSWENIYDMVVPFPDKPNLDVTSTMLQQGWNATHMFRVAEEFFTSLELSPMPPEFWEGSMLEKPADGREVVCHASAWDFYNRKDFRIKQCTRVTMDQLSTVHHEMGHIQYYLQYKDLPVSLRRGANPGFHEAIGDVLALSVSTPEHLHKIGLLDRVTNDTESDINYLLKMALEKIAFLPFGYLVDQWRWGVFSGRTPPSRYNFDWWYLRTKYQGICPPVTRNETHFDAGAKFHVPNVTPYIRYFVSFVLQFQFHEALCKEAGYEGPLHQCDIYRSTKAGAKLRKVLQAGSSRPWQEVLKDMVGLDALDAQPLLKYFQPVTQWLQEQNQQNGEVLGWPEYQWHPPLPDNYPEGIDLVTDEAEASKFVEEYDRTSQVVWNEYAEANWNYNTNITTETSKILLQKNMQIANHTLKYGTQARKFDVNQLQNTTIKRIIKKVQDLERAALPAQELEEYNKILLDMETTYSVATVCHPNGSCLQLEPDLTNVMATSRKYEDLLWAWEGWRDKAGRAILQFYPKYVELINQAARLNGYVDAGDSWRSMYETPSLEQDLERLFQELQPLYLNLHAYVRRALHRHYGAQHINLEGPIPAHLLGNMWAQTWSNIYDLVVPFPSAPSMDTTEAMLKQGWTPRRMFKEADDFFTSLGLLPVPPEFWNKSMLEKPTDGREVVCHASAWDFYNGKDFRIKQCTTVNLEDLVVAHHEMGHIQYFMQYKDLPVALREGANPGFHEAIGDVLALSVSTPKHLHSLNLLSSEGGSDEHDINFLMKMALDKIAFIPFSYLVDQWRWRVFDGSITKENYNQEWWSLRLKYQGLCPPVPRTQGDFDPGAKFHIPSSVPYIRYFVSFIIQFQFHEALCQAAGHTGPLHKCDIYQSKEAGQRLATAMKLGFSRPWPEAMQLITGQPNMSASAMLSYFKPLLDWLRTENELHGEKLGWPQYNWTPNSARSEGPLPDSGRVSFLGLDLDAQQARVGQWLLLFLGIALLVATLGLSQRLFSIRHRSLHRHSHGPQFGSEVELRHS

Row | SMILES | anti-hypertensive effect [1] | non-responders (hypertensive patients; of 57 hypertensive patients) [patients] | patients who demonstrate a clinical response (responders) (hypertensive patients; of 57 hypertensive patients) [patients] | patients who discontinued therapy due to adverse events [2] [%] | non-responders (hypertensive patients; of 65 hypertensive patients) [patients] | patients who demonstrate a clinical response (responders) (hypertensive patients; of 65 hypertensive patients) [patients] | time to mean peak serum concentration [3] | inhibition of ACE (ACE) | partial agonist activity at the AT1 receptor (AT1 receptor)
1 | CCOC(=O)[C@H](CCc1ccccc1)N[C@@H](C)C(=O)N1[C@H](C(=O)O)C[C@@H]2CCC[C@@H]21 [Ramace, ramipril] | anti-hypertensive | 22 | 35 |  |  |  |  |  | 
2 | CCOC(=O)C1=C(COCCN)NC(C)=C(C(=O)OC)C1c1ccccc1Cl (centres unmarked) [Norvasc, amlodipine] |  |  |  | 2 | 19 | 46 |  |  | 
3 | CCCCc1nc(Cl)c(CO)n1Cc1ccc(-c2ccccc2-c2nn[nH]n2)cc1 [Cozaar, Losartan potassium] |  |  |  |  | 18 | 47 | one | Neither losartan nor its active metabolite inhibits ACE | do not exhibit any partial agonist activity
